Source: ChEMBL document CHEMBL1139660, “Imidazo[1,2-b][1,2,4]triazines as alpha2/alpha3 subtype selective GABA A agonists for the treatment of anxiety” (Bioorg Med Chem Lett, 2006)

Legend:
[1] = molecular target: T1, GABA-A receptor; alpha-5/beta-3/gamma-2 (Homo sapiens, UniProt P18507+P28472+P31644); test: Displacement of [3H]Ro 15-1788 from recombinant human GABA-Aalpha5 receptor plus beta-3-gamma-2 expressed in L(tk-) cells; type: cell-based
T1 sequence (P18507 whole entry): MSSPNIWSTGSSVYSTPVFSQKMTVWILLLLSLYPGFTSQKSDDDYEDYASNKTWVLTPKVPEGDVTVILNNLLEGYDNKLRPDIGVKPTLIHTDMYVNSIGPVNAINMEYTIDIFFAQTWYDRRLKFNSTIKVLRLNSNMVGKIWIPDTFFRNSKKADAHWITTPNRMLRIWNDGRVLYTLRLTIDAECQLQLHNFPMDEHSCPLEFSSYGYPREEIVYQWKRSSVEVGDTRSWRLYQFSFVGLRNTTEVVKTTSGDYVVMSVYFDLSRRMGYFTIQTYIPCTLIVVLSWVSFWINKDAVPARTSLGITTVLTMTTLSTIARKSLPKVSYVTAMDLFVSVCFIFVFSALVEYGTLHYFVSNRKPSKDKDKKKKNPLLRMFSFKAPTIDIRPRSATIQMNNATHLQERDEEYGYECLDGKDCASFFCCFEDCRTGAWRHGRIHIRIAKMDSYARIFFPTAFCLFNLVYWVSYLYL
T1 sequence (P28472 whole entry): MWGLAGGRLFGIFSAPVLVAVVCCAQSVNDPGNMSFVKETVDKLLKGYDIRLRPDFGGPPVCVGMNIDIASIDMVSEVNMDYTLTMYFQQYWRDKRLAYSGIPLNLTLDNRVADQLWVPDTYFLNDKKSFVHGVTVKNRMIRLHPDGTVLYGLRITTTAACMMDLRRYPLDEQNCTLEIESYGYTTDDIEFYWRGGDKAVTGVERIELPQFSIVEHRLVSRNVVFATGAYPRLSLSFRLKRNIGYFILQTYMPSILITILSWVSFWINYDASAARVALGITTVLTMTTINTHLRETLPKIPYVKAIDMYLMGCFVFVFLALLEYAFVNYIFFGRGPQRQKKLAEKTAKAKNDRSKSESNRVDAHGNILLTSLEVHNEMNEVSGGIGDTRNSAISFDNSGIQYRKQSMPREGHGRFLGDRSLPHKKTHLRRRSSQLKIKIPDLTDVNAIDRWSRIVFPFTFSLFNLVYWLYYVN
T1 sequence (P31644 whole entry): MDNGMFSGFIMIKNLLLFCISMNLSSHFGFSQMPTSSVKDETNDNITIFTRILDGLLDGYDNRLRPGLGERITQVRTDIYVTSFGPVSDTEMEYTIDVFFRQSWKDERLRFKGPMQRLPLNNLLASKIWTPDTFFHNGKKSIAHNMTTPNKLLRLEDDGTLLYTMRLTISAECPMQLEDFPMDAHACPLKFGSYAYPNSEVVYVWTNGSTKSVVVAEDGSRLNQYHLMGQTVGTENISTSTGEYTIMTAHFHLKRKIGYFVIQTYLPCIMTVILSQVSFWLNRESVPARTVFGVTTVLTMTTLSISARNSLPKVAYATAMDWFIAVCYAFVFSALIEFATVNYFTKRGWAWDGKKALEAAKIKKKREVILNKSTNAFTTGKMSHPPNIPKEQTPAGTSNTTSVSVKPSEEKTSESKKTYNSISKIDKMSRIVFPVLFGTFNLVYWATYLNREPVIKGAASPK

[2] = molecular target: T2, GABA-A receptor; alpha-1/beta-3/gamma-2 (Homo sapiens, UniProt P14867+P18507+P28472); test: Displacement of [3H]Ro 15-1788 from recombinant human GABA-Aalpha1 receptor plus beta3gamma2 expressed in mouse L(tk-) cells; type: cell-based
T2 sequence (P14867 whole entry): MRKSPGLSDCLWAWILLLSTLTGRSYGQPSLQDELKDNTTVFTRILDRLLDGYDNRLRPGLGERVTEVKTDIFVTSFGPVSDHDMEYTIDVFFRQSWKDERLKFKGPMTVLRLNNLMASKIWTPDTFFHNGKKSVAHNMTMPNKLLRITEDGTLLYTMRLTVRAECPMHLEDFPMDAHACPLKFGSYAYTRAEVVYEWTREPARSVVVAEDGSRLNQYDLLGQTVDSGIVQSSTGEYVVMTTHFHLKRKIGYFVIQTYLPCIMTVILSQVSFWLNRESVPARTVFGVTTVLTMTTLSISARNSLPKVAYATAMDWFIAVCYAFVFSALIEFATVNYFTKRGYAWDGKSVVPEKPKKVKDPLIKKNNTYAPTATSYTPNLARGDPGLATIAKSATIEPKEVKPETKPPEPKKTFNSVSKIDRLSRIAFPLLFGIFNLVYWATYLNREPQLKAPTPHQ
T2 sequence (P18507 whole entry): T1 sequence (P18507 whole entry)
T2 sequence (P28472 whole entry): T1 sequence (P28472 whole entry)

[3] = molecular target: T3, GABA-A receptor; alpha-3/beta-3/gamma-2 (Homo sapiens) (UniProt P18507+P28472+P34903); test: Efficacy against recombinant human GABA-Aalpha3 receptor plus beta-3-gamma-2 expressed in L(tk-) cells by modulation of chloride ion flux relative to chlordiazepoxide; type: functional, cell-based
[4] = molecular target: T4, GABA-A receptor; alpha-1/beta-3/gamma-2 (Homo sapiens) (UniProt P14867+P18507+P28472); test: Efficacy against recombinant human GABA-Aalpha1 receptor plus beta-3-gamma-2 expressed in L(tk-) cells by modulation of chloride ion flux relative to chlordiazepoxide; type: cell-based
[5] = molecular target: T5, GABA-A receptor; alpha-3/beta-3/gamma-2 (Homo sapiens, UniProt P18507+P28472+P34903); test: Displacement of [3H]Ro 15-1788 from recombinant human GABA-Aalpha3 receptor plus beta-3-gamma-2 expressed in L(tk-) cells; type: cell-based
T5 sequence (P18507 whole entry): T1 sequence (P18507 whole entry)
T5 sequence (P28472 whole entry): T1 sequence (P28472 whole entry)
T5 sequence (P34903 whole entry): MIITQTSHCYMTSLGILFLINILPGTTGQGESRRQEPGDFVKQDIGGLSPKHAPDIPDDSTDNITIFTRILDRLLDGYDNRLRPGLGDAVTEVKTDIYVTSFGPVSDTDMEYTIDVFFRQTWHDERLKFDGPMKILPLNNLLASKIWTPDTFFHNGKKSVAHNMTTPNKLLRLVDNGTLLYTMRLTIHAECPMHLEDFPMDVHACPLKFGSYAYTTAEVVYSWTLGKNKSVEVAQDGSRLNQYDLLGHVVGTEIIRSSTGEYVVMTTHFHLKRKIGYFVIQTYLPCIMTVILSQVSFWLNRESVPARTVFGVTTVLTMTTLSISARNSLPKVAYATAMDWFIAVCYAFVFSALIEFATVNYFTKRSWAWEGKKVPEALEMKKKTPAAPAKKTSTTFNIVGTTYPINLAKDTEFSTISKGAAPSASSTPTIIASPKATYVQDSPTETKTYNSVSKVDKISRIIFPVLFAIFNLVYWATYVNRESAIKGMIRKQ

[6] = molecular target: T4, GABA-A receptor; alpha-1/beta-3/gamma-2 (Homo sapiens); test: Efficacy against recombinant human GABA-Aalpha1 receptor plus beta-3-gamma-2 expressed in L(tk-) cells by whole cell patch clamp method; type: functional, cell-based
[7] = molecular target: T6, GABA-A receptor; alpha-2/beta-3/gamma-2 (Homo sapiens, UniProt P18507+P28472+P47869); test: Displacement of [3H]Ro 15-1788 from recombinant human GABA-Aalpha2 receptor plus beta-3-gamma-2 expressed in mouse L(tk-) cells; type: cell-based
T6 sequence (P18507 whole entry): T1 sequence (P18507 whole entry)
T6 sequence (P28472 whole entry): T1 sequence (P28472 whole entry)
T6 sequence (P47869 whole entry): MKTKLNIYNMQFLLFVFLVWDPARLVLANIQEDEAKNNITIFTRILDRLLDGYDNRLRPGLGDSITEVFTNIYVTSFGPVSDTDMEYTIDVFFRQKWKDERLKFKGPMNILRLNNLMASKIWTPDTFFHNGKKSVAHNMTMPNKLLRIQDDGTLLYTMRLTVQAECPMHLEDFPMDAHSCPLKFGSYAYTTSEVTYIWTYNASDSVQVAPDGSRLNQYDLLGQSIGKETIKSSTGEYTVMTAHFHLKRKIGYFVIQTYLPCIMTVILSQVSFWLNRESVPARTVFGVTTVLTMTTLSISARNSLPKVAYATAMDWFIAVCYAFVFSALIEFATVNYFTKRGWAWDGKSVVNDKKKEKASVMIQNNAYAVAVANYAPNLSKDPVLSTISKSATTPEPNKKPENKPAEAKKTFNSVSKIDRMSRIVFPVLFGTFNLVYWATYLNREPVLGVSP

[8] = Oral bioavailability in Beagle dog at 1 mg/kg, iv or 1 mg/kg, po; type: ADME, organism-based, Canis lupus familiaris; details: in vivo
[9] = Plasma clearance in Beagle dog at 1 mg/kg, iv or 1 mg/kg, po; type: ADME, organism-based, Canis lupus familiaris
[10] = Half life in Sprague-Dawley rat at 1 mg/kg, iv or 1 mg/kg, po; type: ADME, organism-based; details: in vivo
[11] = molecular target: GABA-A receptor; alpha-5/beta-3/gamma-2 (Homo sapiens) (UniProt P18507+P28472+P31644); test: Efficacy against recombinant human GABA-Aalpha5 receptor plus beta3gamma2 expressed in L(tk-) cells by whole cell patch clamp method relative to chlordiazepoxide; type: functional, cell-based
[12] = Volume of distribution in Sprague-Dawley rat at 1 mg/kg, iv or 1 mg/kg, po; type: ADME, organism-based; details: in vivo, read-out: Vdss
[13] = molecular target: T3, GABA-A receptor; alpha-3/beta-3/gamma-2 (Homo sapiens); test: Efficacy against recombinant human GABA-Aalpha3 receptor plus beta-3-gamma-2 expressed in L(tk-) cells by whole cell patch clamp method relative to chlordiazepoxide; type: functional, cell-based
[14] = Oral bioavailability in Sprague-Dawley rat at 1 mg/kg, iv or 1 mg/kg, po; type: ADME, organism-based; details: in vivo
Rattus norvegicus = test: Plasma clearance in Sprague-Dawley rat at 1 mg/kg, iv or 1 mg/kg, po; type: organism-based
[15] = Volume of distribution in Beagle dog at 1 mg/kg, iv or 1 mg/kg, po; type: ADME, organism-based, Canis lupus familiaris; details: in vivo, read-out: Vdss
[16] = molecular target: GABA-A receptor; alpha-2/beta-3/gamma-2 (Homo sapiens) (UniProt P18507+P28472+P47869); test: Efficacy against recombinant human GABA-Aalpha2 receptor plus beta-3-gamma-2 expressed in L(tk-) cells by whole cell patch clamp method relative to chlordiazepoxide; type: functional, cell-based

Row | Structure (SMILES) | Ki [1] [nM] | Ki [2] [nM] | Efficacy [3] | Efficacy [4] | Ki [5] [nM] | Efficacy [6] | Ki [7] [nM] | bioavailability [8] [%] | clearance [9] [mL/min/kg] | half-life [10] [h] | Efficacy [11] | Vd [12] [L/kg] | Efficacy [13] | bioavailability [14] [%] | Vd [15] [L/kg] | Efficacy [16] | CL (mL.min-1.kg-1) (Rattus norvegicus)
1 | CC(C)(O)c1cnn2c(-c3ccc(F)c(-c4ccncc4)c3)cnc2n1 | 0.5 | 0.55 | – | – | 0.52 | 0.06 | 0.92 | – | – | – | – | – | – | – | – | – | –
2 | CC(C)(O)c1cnn2c(-c3ccc(F)c(-c4ncc(F)cc4F)c3)cnc2n1 | 2.71 | 0.67 | – | – | 4.5 | 0 | 3.44 | 64 | 0.5 | 22 | 0.09 | 2.2 | 0.5 | 69 | 2.3 | 0.39 | 1.2
3 | CC(C)(O)c1cnn2c(-c3ccc(F)c(-c4cccnc4)c3)cnc2n1 | 0.5 | 0.81 | – | – | 1.63 | 0 | – | – | – | – | – | – | 0.24 | – | – | – | –
4 | CC(C)(O)c1cnn2c(-c3ccc(F)c(-c4ccncc4C#N)c3)cnc2n1 | 0.32 | 0.76 | – | – | 1.06 | 0 | 1.54 | – | – | – | 0.41 | – | 0.37 | – | – | 0.23 | –

The next lines start with results.

Row | Ki [1] [nM] | Ki [2] [nM] | Efficacy [3] | Efficacy [4] | Ki [5] [nM] | Efficacy [6] | Ki [7] [nM] | bioavailability [8] [%] | clearance [9] [mL/min/kg] | half-life [10] [h] | Efficacy [11] | Vd [12] [L/kg] | Efficacy [13] | bioavailability [14] [%] | Vd [15] [L/kg] | Efficacy [16] | Structure (SMILES) | CL (mL.min-1.kg-1) (Rattus norvegicus)
5 | 0.67 | 1.43 | 0.52 | 0.26 | 3.64 | – | – | – | – | – | – | – | – | – | – | – | CC(C)(O)c1ccn2c(-c3ccc(F)c(-c4ncccc4C#N)c3)cnc2n1 | –
6 | 0.42 | 1.6 | 0.57 | 0.38 | 1.94 | 0.4 | – | – | – | – | – | – | – | – | – | – | CC(C)(O)c1ccn2c(-c3ccc(F)c(-c4ccc(F)cn4)c3)cnc2n1 | –
7 | 1.24 | 1.45 | – | – | 2.77 | 0.15 | 2.3 | – | – | – | – | – | 0.5 | – | – | – | CC(C)(O)c1cnn2c(-c3ccc(F)c(-c4ccc(F)cn4)c3)cnc2n1 | –
8 | 1.24 | 0.8 | 0.68 | 0.44 | 0.42 | – | – | – | – | – | – | – | – | – | – | – | CC(C)(O)c1ccn2c(-c3ccc(F)c(-c4ncccc4F)c3)cnc2n1 | –
